Key:
[1] = system: adoptive T-cell transfer mice; experiment: Adoptive T-cell transfer study; assay type: in vivo, CB-17 SCID mice; settings: compound 44 100 mg/kg, olsalazine 30 mg/kg, through day 42, compared to the vehicle control
Excerpt: On study day 0, naïve T-cells were obtained from the spleen of 11 to 12 week-old Balb/C mice using the SCID Cell Separation Protocol with the following labelling scheme; CD4+CD45RB^highCD25− and CD4+CD45RB^lowCD25+ cell (APC CD4 Antibody (100412), FITC CD45RB Antibody (103306), PE CD25 Antibody (101904), from BioLegend, San Diego, CA, and CD4 cell enrichment kit: 19752A, Stemcell Technologies, Cambridge, MA) and the 4×10^5 of CD4^+CD45RB^highCD25− cells were transferred 6-7 weeks old CB-17 SCID mice. Recipient mice were randomized based on their body weight (n=12 mice/group), and received […] of vehicle (0.5% methyl-cellulose) (vehicle control), 0.5 mg per mouse of anti-IL-12 (positive control), 30 mg/kg of olsalazine (positive treatment group), and 100 mg/kg of compound 44 (compound treatment group) through day 42. On day 42, animals were anesthetized with Isoflurane and bled to exsanguination followed by cervical dislocation. The entire colon was removed and the overall efficacy of compound 44 was assessed based on colon length and weight per length. […] Statistical analysis was performed with GraphPad Prism (GraphPad Software). Mann-Whitney U test was used to assess significance between the vehicle control and each treatment group.

[2] = system: naïve CD4+ T cells; experiment: Human regulatory T cell differentiation assay; assay type: cell-based; settings: 6 days
Protocol: Peripheral blood mononuclear cells (PBMCs) from whole blood donated by health volunteers were separated by Ficoll-Paque gradient centrifugation and naïve CD4^+ T cells were subsequently isolated using magnet beads (EasySep™ Human Naïve CD4^+ T Cell Isolation Kit, Cambridge, MA). For regulatory T cell (Treg) differentiation assay, naïve CD4^+ T cells were cultured (1-10×10^4 cells) in CTS OpTmizer medium for 6 days and stimulated with 5 ng/ml TGF-β, 100 U/ml IL-2, and ImmunoCult™ Human […] T Cell Activator; Stemcell #10990) with/without our Compounds. Cell viability was determined using a viability dye (eBioscience Fixable Viability Dye eFluor 780: ThermoFisher 65-0865-14) at 1:500 dilution. The cells were gated for Treg, defined as Live, CD11c^−, CD14^−, CD19^−, CD8^−, CD4^+, CD3^+, CD25^+, FOXP3^+. Percent (%) Tregs were calculated as percentage of CD4^+, CD25^+, FOXP3^+ cells over total CD4 T cells. Statistical analysis was performed with GraphPad Prism Software Using One-Way ANOVA.

[3] = system: neutrophil; experiment: Neutrophil chemokine production assay; assay type: cell-based, human; settings: 12 h
Protocol: A volume 25 mL of human blood was layered over 15 mL of Histopaque®-1077 and centrifuged at 500 g, RT, for 30 min with no break applied to the centrifuge. The PBMC band and Histopaque®-1077 layer were removed leaving behind the bottom red layer which was mixed with 40 mL of 1× red blood cell (RBC) lysis buffer (Sigma-Aldrich) was and split into two 50 mL tubes. The volume for both fractions was brought to 50 mL with RBC lysis buffer, mixed by inversion, and then incubated at RT for 10 min. Solutions were centrifuged at 250 g, for 10 min at RT and the supernatant liquids removed. The reddish pellets were re-suspended in 1 mL of RBC lysis buffer and combined. The cell suspension was incubated for 5 min at RT in RBC lysis buffer. After incubation 45 mL of Hanks Balanced Salt Solution with no calcium, magnesium or phenol red (HBSS−) was added, the cell suspension was spun (250 g for 10 min at RT), and supernatant liquids were removed. The white pellet was re-suspended in 1 mL of HBSS−, and cell counts were determined. The neutrophil cell suspension was brought to a concentration of 1.11e6 cells/mL in RPMI complete (Sigma-Aldrich), and 180 μL of cell suspension was transferred to all wells within a sterile 96-well tissue culture treated plate resulting in 2.0e5 cells/well. […] After incubation, 10 μL of 2 μg/mL LPS solution in RPMI complete was added to each well except for control wells, which received an additional 10 μL of media. Cells were incubated for 12 h (37° C., 5% CO2), after which plates were centrifuged at 250 g, RT, for 5 min and supernatant liquids were obtained and stored at −80° C. until analyzed via Luminex® Multiplex Assay for various chemokines and cytokines. Three data points were acquired from two different blood donors and averaged.

[4] = system: Caco-2 colonocytes; experiment: Human Caco-2 barrier integrity assay (TEER); assay type: cell-based; settings: 48 hours
Protocol: At 70-80% confluency, cells were trypsinized and seeded in 0.4 cm^2 transwell collagen I coated membranes with supplemented DMEM in both apical and basolateral compartments. Cells were seeded at a density of 200,000 cells per well and maintained for 10 days to form a polarized barrier with a TransEpithelial […] After 48 hours, TEER readings were taken again and viability was measured by CellTiter 96® AQueous One Solution Cell Proliferation Assay (Promega). The percent change in TEER over the 48 hours was determined and normalized to the 0.1% DMSO control (Table 6).

[5] = system: AhR; experiment: AhR activation in Caco-2 cells through CYP1A1 mRNA expression; settings: overnight
Protocol: Caco-2 cells from American Type Culture Collection (ATCC) were plated in a sterile tissue culture treated 96-well plate (ThermoFisher) at […], and grown overnight at 37° C., 5% CO2 in DMEM complete (Gibco) in order to achieve confluence. After the incubation medium was aspirated off of the Caco-2 monolayers, tissues were then washed with 200 μL of warmed PBS solution, and subsequently 190 μL of pre-warmed growth medium was added to each well. Compounds of interest were diluted at a 20× concentration in growth medium containing 2% DMSO, and 10 μL of compound solutions were added to respective wells in triplicate. Compounds where incubated overnight at 37° C., 5% CO2. 2-(1′H-indole-3′-carbonyl)-thiazole-4-carboxylic acid methyl ester (ITE) was used as the positive control for AhR activation at 1 and 100 μM concentrations. At the end of the incubation, medium was aspirated off of the Caco-2 cells, and the cells washed with 100 μL of cold PBS solution. RNA was extracted via the TaqMan™ Gene Expression Cells-to-CT™ Kit (ThermoFisher) according to the manufacturers protocol. The QuantStudio 6 Flex (Applied Biosciences) was used to analyze mRNA levels of CYP1A1 using GAPDH as the endogenous control. TaqMan™ probe sets for both genes were acquired from ThermoFisher. Samples were run in triplicate and data was analyzed using the QuantStudio software and reported as linear (Table 1) and log 2(ΔΔCT) values. Statistical analysis was performed using a two-tailed t-test comparing CYP1A1 levels in the presence of each individual compound to the vehicle negative control.

[6] = system: CD4+CD25+ Treg cells; experiment: In vivo induction of CD4+CD25+ Treg cells in high-fat diet fed mice; settings: C57BL/6 mice on high-fat diet, 6% in diet ad libitum; compared to EGCG, acetate, or their combination
Excerpt: Acylated active agents disclosed herein may be useful in modulating autoimmunity markers and for treating autoimmune disorders.

[7] = Assay 1. Stability in Simulated Gastric Fluid (SGF); assay type: in vitro ADME; settings: SGF pH 1.6 with pepsin, 1 μM, 37° C.
How it was run: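 Degradation rate from LC/MS of acetonitrile-quenched aliquots (T0, then regular intervals). Fresh SGF (pH 1.6 NaCl, FaSSIF powder, pepsin 0.1 mg/mL) held compound at 1 μM final, 37° C; 1 mM DMSO stock.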

[8] = Assay 2. Stability in Simulated Intestinal Fluid (SIF); assay type: in vitro ADME; settings: SIF pH 6.7 with pancreatin, 1 μM, 37° C.
How it was run: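 Degradation rates came from LC/MS of acetonitrile-quenched samples drawn at intervals, starting at T0. The medium was freshly made pH 6.7 FaSSIF containing pancreatin, and test compound was present at 1 µM while being shaken at 37 °C.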

[9] = system: Primary Human Peripheral Blood Mononuclear Cells (PBMCs); experiment: Inflammatory signals in LPS-treated primary human PBMCs; assay type: cell-based; settings: 100 uM, 24 hours
Protocol: Human donor blood (8 mL) was collected in sodium citrate CPT tubes and centrifuged at 1,600×g for 20 minutes at room temperature. Buffy coat containing PBMCs was collected and transferred to a 50 mL conical tube containing 30 mL of RPMI-1640 medium at room temperature (supplemented with penicillin-streptomycin). PBMCs samples were centrifuged at 400×g for 10 minutes at 10° C. The pelleted PBMCs were washed twice in 10 ml of RPMI-1640 medium (supplemented with penicillin-streptomycin), then resuspended in RPMI-1640 medium (supplemented with penicillin-streptomycin, fetal bovine serum, and L-Glutamine). PBMCs were filtered through a 70 micron mesh to remove any cellular debris. […] PBMCs in a 96-well plate were rested for 30 minutes in a 37° C., 5% CO2 incubator, then subsequently treated with 10 μl of indicated compound. After 2 hours 10 μL of LPS (O111:B4) 1 mg/mL was added to test wells. After 24 hours of incubation at 37° C., 5% CO2, 100 μL of cell supernatant was collected and transferred to a 96-well plate (non-tissue treated, flat bottom). The plate was centrifuged at 350×g for 5 minutes at room temperature, and then the clear supernatant transferred to a new 96-well plate (non-tissue treated, flat bottom). The remaining cells were tested for viability using CellTiter-Glo® Luminescent Cell Viability Assay (Promega). The supernatant was analyzed for TNFα, IL-6 and […] Systems), using Luminex Immunoassay Technology (MAGPIX System). Cytokine levels of LPS treated DMSO control samples were set to 100%, and compound treated samples were expressed relative to this (Table 3).

SMILES: O=C(O)c1cc(/N=N/c2ccc(O)c(C(=O)O)c2)ccc1O [olsalazine, reference compound]
- colon weight per length (FIG. 3B) [1]: significantly increased the colon weight per length

SMILES: O=C(O[C@@H]1Cc2c(O)cc(O)cc2O[C@@H]1c1cc(O)c(O)c(O)c1)c1cc(O)c(O)c(O)c1 [EGCG, epigallocatechin gallate]
- Cell viability % DMSO ([2]; 100 nM): = (90%> <110%: =)
- Treg induction % DMSO ([2]; 100 nM): = (90%> <110%: =)
- Cell viability % DMSO ([2]; 1 uM): = (90%> <110%: =)
- Treg induction % DMSO ([2]; 1 uM): = (90%> <110%: =)
- % IL-8 (Vehicle + LPS = 100%) ([3]; 0.1 μM): − (− = >90% Vehicle)
- % MIP-1α (Vehicle + LPS = 100%) ([3]; 0.1 μM): − (− = >90% Vehicle)
- % MIP-1β (DMSO + LPS = 100%) ([3]; 0.1 μM): − (− = >90% Vehicle)
- % IL-8 (Vehicle + LPS = 100%) ([3]; 1.0 μM): − (− = >90% Vehicle)
- % MIP-1α (Vehicle + LPS = 100%) ([3]; 1.0 μM): − (− = >90% Vehicle)
- % MIP-1β (DMSO + LPS = 100%) ([3]; 1.0 μM): − (− = >90% Vehicle)
- % Change in TEER from DMSO ([4]; 100 nM + cytokines): − (<125%: −)
- % Change in TEER from DMSO ([4]; 1 μM + cytokines): − (<125%: −)
- Average CYP1A1 mRNA levels ([5]; 0.1 μM): − (- = <2-fold Vehicle)
- Average CYP1A1 mRNA levels ([5]; 1.0 μM): − (- = <2-fold Vehicle)

SMILES: CC(=O)Oc1cc(OC(C)=O)c2c(c1)O[C@H](c1cc(OC(C)=O)c(OC(C)=O)c(OC(C)=O)c1)[C@H](OC(=O)c1cc(OC(C)=O)c(OC(C)=O)c(OC(C)=O)c1)C2 [Compound 2, [(2R,3R)-5,7-diacetoxy-2-(3,4,5-triacetoxyphenyl)chroman-3-yl] 3,4,5-triacetoxybenzoate]
- CD4+CD25+ Treg cells (CD4+CD25+ cell counts as a percentage of all CD4+ T cells, FIG. 1) [6]: induce CD4^+CD25^+ Treg cells
- Assay 1 (SGF) (% Remaining @ 1 hour) [7]: C (>75% of the tested compound remaining)
- Assay 2 (SIF) (% @ Remaining 4 hours) [8]: A (<25% of the tested compound remaining)

SMILES: CC(O)CC(=O)O (stereo not drawn) [beta-hydroxybutyric acid, β-hydroxybutyric acid]
- % IL-8 (Vehicle + LPS = 100%) ([3]; 200.0 μM): − (− = >90% Vehicle)
- % MIP-1α (Vehicle + LPS = 100%) ([3]; 200.0 μM): − (− = >90% Vehicle)
- % MIP-1β (DMSO + LPS = 100%) ([3]; 200.0 μM): + (+ = <90% Vehicle)
- % IL-8 (Vehicle + LPS = 100%) ([3]; 2000.0 μM): + (+ = <90% Vehicle)
- % MIP-1α (Vehicle + LPS = 100%) ([3]; 2000.0 μM): ++ (++ = <70%Vehicle)
- % MIP-1β (DMSO + LPS = 100%) ([3]; 2000.0 μM): + (+ = <90% Vehicle)
- % Change in TEER from DMSO ([4]; 200 μM + cytokines): + (125%> <150%: +)
- % Change in TEER from DMSO ([4]; 2 mM + cytokines): − (<125%: −)
- IL1β % DMSO control [9]: − ((−) >110% DMSO)
- IL6 % DMSO control [9]: = ((=) 90%> <110% DMSO)
- TNFα % of DMSO control [9]: − ((−) >110% DMSO)

SMILES: CC(=O)O [acetate]
- % IL-8 (Vehicle + LPS = 100%) ([3]; 500.0 μM): − (− = >90% Vehicle)
- % MIP-1α (Vehicle + LPS = 100%) ([3]; 500.0 μM): + (+ = <90% Vehicle)
- % MIP-1β (DMSO + LPS = 100%) ([3]; 500.0 μM): + (+ = <90% Vehicle)
- % IL-8 (Vehicle + LPS = 100%) ([3]; 1000.0 μM): − (− = >90% Vehicle)
- % MIP-1α (Vehicle + LPS = 100%) ([3]; 1000.0 μM): ++ (++ = <70%Vehicle)
- % MIP-1β (DMSO + LPS = 100%) ([3]; 1000.0 μM): + (+ = <90% Vehicle)
- % IL-8 (Vehicle + LPS = 100%) ([3]; 3000.0 μM): +++ (+++ = <50% Vehicle)
- % MIP-1α (Vehicle + LPS = 100%) ([3]; 3000.0 μM): +++ (+++ = <50% Vehicle)
- % MIP-1β (DMSO + LPS = 100%) ([3]; 3000.0 μM): +++ (+++ = <50% Vehicle)
- % Change in TEER from DMSO ([4]; 1 mM + cytokines): − (<125%: −)
- % Change in TEER from DMSO ([4]; 3 mM + cytokines): − (<125%: −)
- IL1β % DMSO control [9]: = ((=) 90%> <110% DMSO)
- IL6 % DMSO control [9]: = ((=) 90%> <110% DMSO)
- TNFα % of DMSO control [9]: = ((=) 90%> <110% DMSO)
